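Values below derive from 48-hour exposures of cells grown in 96-well plates, with endpoints linearly interpolated between the two concentrations bracketing the appropriate inhibition level. Here, GI50 denotes the concentration required for 50% inhibition of growth.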 The source made the active and inactive calls. Rule as the data show it: active = GI50 up to about 1.1 µM and inactive = higher.
What was measured:
Assay in all cases: growth of human tumour cells (NCI), 48 h
A498 = test system: A498
A549 = test system: A549
ACHN = test system: ACHN
BT-549 = test system: BT-549
CAKI-1 = test system: CAKI-1
CCRF-CEM = test system: CCRF-CEM
COLO 205 = test system: COLO 205
DU-145 = test system: DU-145
EKVX = test system: EKVX
HCC 2998 = test system: HCC 2998
HCT-15 = test system: HCT-15
HL-60 = test system: HL-60
HOP-62 = test system: HOP-62
HOP-92 = test system: HOP-92
HT-29 = test system: HT-29
Hs-578T = test system: Hs-578T
IGROV-1 = test system: IGROV-1
K562 = test system: K562
KM12 = test system: KM12
LOX IMVI = test system: LOX IMVI
M14 = test system: M14
MCF7 = test system: MCF7
MDA-MB-231 = test system: MDA-MB-231
MDA-MB-435 = test system: MDA-MB-435
MDA-N = test system: MDA-N
MOLT-4 = test system: MOLT-4
Malme-3M = test system: Malme-3M
NCI-H226 = test system: NCI-H226
NCI-H460 = test system: NCI-H460
NCI-H522 = test system: NCI-H522
NCI/ADR-RES = test system: NCI/ADR-RES
OVCAR-3 = test system: OVCAR-3
OVCAR-4 = test system: OVCAR-4
OVCAR-5 = test system: OVCAR-5
OVCAR-8 = test system: OVCAR-8
PC-3 = test system: PC-3
RPMI-8226 = test system: RPMI-8226
RXF 393 = test system: RXF 393
SF-268 = test system: SF-268
SF-539 = test system: SF-539
SK-MEL-28 = test system: SK-MEL-28
SK-MEL-2 = test system: SK-MEL-2
SK-MEL-5 = test system: SK-MEL-5
SN12C = test system: SN12C
SNB-19 = test system: SNB-19
SNB-75 = test system: SNB-75
SR = test system: SR
SW-620 = test system: SW-620
T47D = test system: T47D
TK-10 = test system: TK-10
U-251 = test system: U-251
UACC-257 = test system: UACC-257
UO-31 = test system: UO-31
786-0 = test system: 786-0
HCT-116 = test system: HCT-116
NCI-H23 = test system: NCI-H23
SF-295 = test system: SF-295
SK-OV-3 = test system: SK-OV-3
UACC-62 = test system: UACC-62

CCOP(=O)(C/C=C/Cn1ncc(=O)[nH]c1=O)OCC
GI50 (A498): > 100 µM (inactive)
GI50 (A549): > 100 µM (inactive)
GI50 (ACHN): 63.2 µM (inactive)
GI50 (BT-549): > 100 µM (inactive)
GI50 (CAKI-1): > 100 µM (inactive)
GI50 (CCRF-CEM): > 100 µM (inactive)
GI50 (COLO 205): > 100 µM (inactive)
GI50 (DU-145): > 100 µM (inactive)
GI50 (EKVX): > 100 µM (inactive)
GI50 (HCC 2998): > 100 µM (inactive)
GI50 (HCT-15): > 100 µM
GI50 (HL-60): > 100 µM (inactive)
GI50 (HOP-62): > 100 µM (inactive)
GI50 (HOP-92): > 100 µM (inactive)
GI50 (HT-29): > 100 µM (inactive)
GI50 (Hs-578T): > 100 µM (inactive)
GI50 (IGROV-1): > 100 µM (inactive)
GI50 (K562): > 100 µM (inactive)
GI50 (KM12): > 100 µM (inactive)
GI50 (LOX IMVI): > 100 µM (inactive)
GI50 (M14): > 100 µM (inactive)
GI50 (MCF7): > 100 µM (inactive)
GI50 (MDA-MB-231): > 100 µM (inactive)
GI50 (MDA-MB-435): > 100 µM (inactive)
GI50 (MDA-N): > 100 µM (inactive)
GI50 (MOLT-4): > 100 µM (inactive)
GI50 (Malme-3M): > 100 µM (inactive)
GI50 (NCI-H226): > 100 µM (inactive)
GI50 (NCI-H460): > 100 µM (inactive)
GI50 (NCI-H522): > 100 µM (inactive)
GI50 (NCI/ADR-RES): > 100 µM (inactive)
GI50 (OVCAR-3): > 100 µM (inactive)
GI50 (OVCAR-4): > 100 µM (inactive)
GI50 (OVCAR-5): > 100 µM (inactive)
GI50 (OVCAR-8): > 100 µM (inactive)
GI50 (PC-3): > 100 µM (inactive)
GI50 (RPMI-8226): > 100 µM (inactive)
GI50 (RXF 393): > 100 µM (inactive)
GI50 (SF-268): > 100 µM (inactive)
GI50 (SF-539): > 100 µM (inactive)
GI50 (SK-MEL-28): > 100 µM (inactive)
GI50 (SK-MEL-2): > 100 µM (inactive)
GI50 (SK-MEL-5): > 100 µM (inactive)
GI50 (SN12C): > 100 µM (inactive)
GI50 (SNB-19): > 100 µM (inactive)
GI50 (SNB-75): > 100 µM (inactive)
GI50 (SR): > 10 µM (inactive)
GI50 (SW-620): > 100 µM (inactive)
GI50 (T47D): > 100 µM (inactive)
GI50 (TK-10): > 100 µM (inactive)
GI50 (U-251): > 100 µM (inactive)
GI50 (UACC-257): > 100 µM (inactive)
GI50 (UO-31): > 100 µM (inactive)

CC(=O)Nc1ccc2[nH]c(C(=O)N3CC(CCl)c4c3cc([N+](=O)[O-])c3ccccc43)cc2c1 (centres undefined)
GI50 (786-0): 10.7 µM (inactive)
GI50 (A498): 0.863 µM (active)
GI50 (A549): 0.393 µM (active)
GI50 (ACHN): 5.57 µM (inactive)
GI50 (BT-549): 3.87 µM (inactive)
GI50 (CAKI-1): 3.93 µM (inactive)
GI50 (CCRF-CEM): 0.879 µM (active)
GI50 (COLO 205): 4.98 µM (inactive)
GI50 (DU-145): 2.96 µM (inactive)
GI50 (EKVX): 5.09 µM (inactive)
GI50 (HCC 2998): 6.4 µM (inactive)
GI50 (HCT-116): 6.41 µM (inactive)
GI50 (HCT-15): 6.47 µM
GI50 (HL-60): 1.01 µM (active)
GI50 (HOP-92): 2.5 µM (inactive)
GI50 (HT-29): 29.9 µM (inactive)
GI50 (Hs-578T): 4.26 µM (inactive)
GI50 (IGROV-1): 2.92 µM (inactive)
GI50 (K562): 0.601 µM (active)
GI50 (KM12): 1.73 µM (inactive)
GI50 (LOX IMVI): 9.2 µM (inactive)
GI50 (M14): 24.2 µM (inactive)
GI50 (MCF7): 5.25 µM (inactive)
GI50 (MDA-MB-231): > 51.4 µM (inactive)
GI50 (MDA-MB-435): 14.7 µM (inactive)
GI50 (MDA-N): > 57.4 µM (inactive)
GI50 (MOLT-4): 0.889 µM (active)
GI50 (NCI-H226): 9.38 µM (inactive)
GI50 (NCI-H23): 8.57 µM (inactive)
GI50 (NCI-H460): 12.9 µM (inactive)
GI50 (NCI-H522): 1.14 µM (inactive)
GI50 (NCI/ADR-RES): 4.45 µM (inactive)
GI50 (OVCAR-3): > 100 µM (inactive)
GI50 (OVCAR-4): > 36.3 µM (inactive)
GI50 (OVCAR-5): 13.1 µM (inactive)
GI50 (OVCAR-8): 3.1 µM (inactive)
GI50 (PC-3): 1.2 µM (inactive)
GI50 (RPMI-8226): 1.02 µM (active)
GI50 (RXF 393): 4.74 µM (inactive)
GI50 (SF-268): 1.98 µM (inactive)
GI50 (SF-295): 7.33 µM (inactive)
GI50 (SK-MEL-28): > 35.6 µM (inactive)
GI50 (SK-MEL-2): 13.8 µM (inactive)
GI50 (SK-MEL-5): 5.89 µM (inactive)
GI50 (SK-OV-3): 0.791 µM (active)
GI50 (SN12C): 7.8 µM (inactive)
GI50 (SNB-19): > 30.2 µM (inactive)
GI50 (SNB-75): 3.4 µM (inactive)
GI50 (SR): 0.349 µM (active)
GI50 (SW-620): 9.23 µM (inactive)
GI50 (T47D): 2.77 µM (inactive)
GI50 (TK-10): 6.32 µM (inactive)
GI50 (U-251): 3.48 µM (inactive)
GI50 (UACC-257): > 100 µM (inactive)
GI50 (UACC-62): 4.52 µM (inactive)
GI50 (UO-31): 0.805 µM (active)
